Measured values from US20230095836A1, “SUBSTITUTED 5,6-DIPHENYL-3(2H)-PYRIDAZINONES FOR USE AS FUNGICIDES” (FMC Corporation, priority 2020, published 2023).

Columns and labels:
Assay type in all cases: in vivo
[1] = system: Phakopsora pachyrhizi; assay: Test D: test solution sprayed on soybean seedlings, inoculated next day with Phakopsora pachyrhizi (Asian soybean rust); visual disease rating (100 = 100% disease control, 0 = no control; dash = not tested)
From the text: General protocol for preparing test suspensions for Tests A-F: the test compounds were first dissolved in acetone in an amount equal to 3% of the final volume and then suspended at the desired concentration (in ppm) in acetone and purified water (50/50 mix by volume) containing 250 ppm of the surfactant PEG400 (polyhydric alcohol esters). The resulting test suspensions were then used in Tests A-F.
The test solution was sprayed to the point of run-off on soybean seedlings. The following day the seedlings were inoculated with a spore suspension of Phakopsora pachyrhizi (the causal agent of Asian soybean rust) and incubated in a saturated atmosphere at 22° C. for 24 h and then moved to a growth chamber at 22° C. for 8 days, after which time visual disease ratings were made.
A rating of 100 indicates 100% disease control and a rating of 0 indicates no disease control (relative to the controls). A dash (—) indicates the compound was not tested.

[2] = system: Alternaria solani; assay: Test F: test suspension sprayed on tomato seedlings, inoculated next day with Alternaria solani (tomato early blight); visual disease rating (100 = 100% disease control, 0 = no control; dash = not tested)
Method: (§1) The resulting test suspensions were then used in Tests A-F. The test suspension was sprayed to the point of run-off on tomato seedlings. The following day the seedlings were inoculated with a spore suspension of Alternaria solani (the causal agent of tomato early blight) and incubated in a saturated atmosphere at 27° C. for 48 h, and then moved to a growth chamber at 20° C. for 3 days, after which time visual disease ratings were made. A rating of 100 indicates 100% disease control and a rating of 0 indicates no disease control (relative to the controls). A dash (—) indicates the compound was not tested.

[3] = system: Puccinia recondita f. sp. tritici; assay: Test B: test solution sprayed on wheat seedlings, inoculated next day with Puccinia recondita f. sp. tritici (wheat leaf rust); disease rating (100 = 100% disease control, 0 = no control; dash = not tested)
From the text: The resulting test suspensions were then used in Tests A-F. The test solution was sprayed to the point of run-off on wheat seedlings. […] A rating of 100 indicates 100% disease control and a rating of 0 indicates no disease control (relative to the controls). A dash (—) indicates the compound was not tested.

[4] = system: Blumeria graminis f. sp. tritici; assay: Test C: test suspension sprayed on wheat seedlings, inoculated next day with Blumeria graminis f. sp. tritici (wheat powdery mildew); visual disease rating (100 = 100% disease control, 0 = no control; dash = not tested)
Method: as §1, with “on wheat” for “on tomato”, “spore dust” for “spore suspension”, “of Blumeria graminis f. sp. tritici, (also known as Erysiphe graminis f. sp. tritici, the” for “of Alternaria solani (the”, “of wheat powdery mildew)” for “of tomato early blight)”, “in” for “in a saturated atmosphere at 27° C. for 48 h, and then moved to”, “for 8” for “for 3”

[5] = system: Zymoseptoria tritici; assay: Test A: test solution sprayed on wheat seedlings, inoculated next day with Zymoseptoria tritici (wheat leaf blotch); disease rating (100 = 100% disease control, 0 = no control; dash = not tested)
Method: The resulting test suspensions were then used in Tests A-F. The test solution was sprayed to the point of run-off on wheat seedlings. The following day the seedlings were inoculated with a spore suspension of Zymoseptoria tritici (the causal agent of wheat leaf blotch) and incubated in a saturated atmosphere at 24° C. for 48 h, and then moved to a growth chamber at 20° C. for 17 days, after which time disease ratings were made. A rating of 100 indicates 100% disease control and a rating of 0 indicates no disease control (relative to the controls). A dash (—) indicates the compound was not tested.

[6] = system: Botrytis cinerea; assay: Test E: test suspension sprayed on tomato seedlings, inoculated next day with Botrytis cinerea (tomato Botrytis); visual disease rating (100 = 100% disease control, 0 = no control; dash = not tested)
Method: as §1, with “Botrytis cinerea” for “Alternaria solani”, “Botrytis)” for “early blight)”, “20°” for “27°”, “24°” for “20°”

CCn1nc(-c2cc(OC)cc(OC)c2Cl)c(-c2c(F)cccc2F)c(Cl)c1=O [Compound 9]
Test D disease control rating ([1]; 50 ppm): 99%
Test F disease control rating ([2]; 50 ppm): 91%
Test B disease control rating ([3]; 50 ppm): 100%
Test C disease control rating ([4]; 50 ppm): 99%
Test A disease control rating ([5]; 50 ppm): 100%
Test E disease control rating ([6]; 50 ppm): 99%

CCn1nc(-c2c(F)cccc2F)c(-c2cc(OC)cc(OC)c2)c(Cl)c1=O [Compound 10, 4-chloro-6-(2,6-difluorophenyl)-5-(3,5-dimethoxyphenyl)-2-ethyl-3(2H)-pyridazinone]
pest or weed control at 250 ppm ([1]; 250 ppm): 0%
pest or weed control at 250 ppm ([2]; 250 ppm): 0%
pest or weed control at 250 ppm ([3]; 250 ppm): 0%
pest or weed control at 250 ppm ([4]; 250 ppm): 0%
pest or weed control at 250 ppm ([5]; 250 ppm): 0%
pest or weed control at 250 ppm ([6]; 250 ppm): 0%

CCn1nc(-c2ccc(F)cc2Cl)c(-c2ccc(F)cc2Cl)cc1=O [Compound 11]
Test D disease control rating ([1]; 250 ppm): 0%
Test F disease control rating ([2]; 250 ppm): 0%
Test B disease control rating ([3]; 250 ppm): 9%
Test C disease control rating ([4]; 250 ppm): 64%
Test A disease control rating ([5]; 250 ppm): 2%
Test E disease control rating ([6]; 250 ppm): 87%

CCn1nc(-c2cc(OC)cc(OC)c2)c(-c2c(F)cccc2F)c(Br)c1=O [Compound 15]
Test D disease control rating ([1]; 50 ppm): 0%
Test F disease control rating ([2]; 50 ppm): 0%
Test B disease control rating ([3]; 50 ppm): 41%
Test C disease control rating ([4]; 50 ppm): 13%
Test A disease control rating ([5]; 50 ppm): 78%
Test E disease control rating ([6]; 50 ppm): 68%

CCn1nc(-c2cc(OC)cc(OC)c2Br)c(-c2c(F)cccc2F)c(Br)c1=O [Compound 16]
Test D disease control rating ([1]; 50 ppm): 84%
Test F disease control rating ([2]; 50 ppm): 94%
Test B disease control rating ([3]; 50 ppm): 97%
Test C disease control rating ([4]; 50 ppm): 97%
Test A disease control rating ([5]; 50 ppm): 99%
Test E disease control rating ([6]; 50 ppm): 99%

CCn1nc(-c2cc(OC)cc(OC)c2Br)c(-c2c(F)cccc2F)cc1=O [Compound 17]
Test D disease control rating ([1]; 50 ppm): 73%
Test F disease control rating ([2]; 50 ppm): 0%
Test B disease control rating ([3]; 50 ppm): 99%
Test C disease control rating ([4]; 50 ppm): 94%
Test A disease control rating ([5]; 50 ppm): 98%
Test E disease control rating ([6]; 50 ppm): 99%

COc1cc(OC)cc(-c2nn(C)c(=O)cc2-c2ccc(F)cc2Cl)c1 [Compound 18]
Test D disease control rating ([1]; 250 ppm): 0%
Test F disease control rating ([2]; 250 ppm): 0%
Test B disease control rating ([3]; 250 ppm): 98%
Test C disease control rating ([4]; 250 ppm): 96%
Test A disease control rating ([5]; 250 ppm): 99%
Test E disease control rating ([6]; 250 ppm): 99%

CCN1N=C(c2cc(OC)cc(OC)c2)C(c2ccc(F)cc2Cl)CC1=O (stereo not drawn) [Compound 19]
Test D disease control rating ([1]; 250 ppm): 0%
Test F disease control rating ([2]; 250 ppm): 0%
Test B disease control rating ([3]; 250 ppm): 0%
Test C disease control rating ([4]; 250 ppm): 0%
Test A disease control rating ([5]; 250 ppm): 0%
Test E disease control rating ([6]; 250 ppm): 0%

COc1cc(OC)cc(C2=NN(C)C(=O)CC2c2ccc(F)cc2Cl)c1 (stereo not drawn) [Compound 20]
Test D disease control rating ([1]; 250 ppm): 0%
Test F disease control rating ([2]; 250 ppm): 0%
Test B disease control rating ([3]; 250 ppm): 9%
Test C disease control rating ([4]; 250 ppm): 21%
Test A disease control rating ([5]; 250 ppm): 51%
Test E disease control rating ([6]; 250 ppm): 31%

COc1cc(OC)cc(-c2nn(C)c(=O)c(C)c2-c2c(F)cccc2F)c1 [Compound 21, 5-(2,6-difluorophenyl)-6-(3,5-dimethoxyphenyl)-2,4-dimethyl-3 (2H)-pyridazinone]
pest or weed control at 250 ppm ([1]; 250 ppm): 100%
pest or weed control at 250 ppm ([2]; 250 ppm): 99%
pest or weed control at 250 ppm ([3]; 250 ppm): 100%
pest or weed control at 250 ppm ([4]; 250 ppm): 100%
pest or weed control at 250 ppm ([5]; 250 ppm): 100%
pest or weed control at 250 ppm ([6]; 250 ppm): 100%

CCn1nc(-c2cc(OC)cc(OC)c2Cl)c(-c2c(F)cccc2F)c(C)c1=O [Compound 22]
Test D disease control rating ([1]; 50 ppm): 98%
Test F disease control rating ([2]; 50 ppm): 79%
Test B disease control rating ([3]; 50 ppm): 100%
Test C disease control rating ([4]; 50 ppm): 98%
Test A disease control rating ([5]; 50 ppm): 100%
Test E disease control rating ([6]; 50 ppm): 100%

CCn1nc(-c2c(F)cccc2F)c(-c2c(F)cccc2F)cc1=O [Compound 23]
Test D disease control rating ([1]; 250 ppm): 0%
Test F disease control rating ([2]; 250 ppm): 0%
Test B disease control rating ([3]; 250 ppm): 0%
Test C disease control rating ([4]; 250 ppm): 0%
Test A disease control rating ([5]; 250 ppm): 0%
Test E disease control rating ([6]; 250 ppm): 0%

CCn1nc(-c2ccc(F)cc2Cl)c(-c2ccc(F)cc2Cl)c(Cl)c1=O [Compound 24]
Test D disease control rating ([1]; 250 ppm): 0%
Test F disease control rating ([2]; 250 ppm): 0%
Test B disease control rating ([3]; 250 ppm): 80%
Test C disease control rating ([4]; 250 ppm): 93%
Test A disease control rating ([5]; 250 ppm): 100%
Test E disease control rating ([6]; 250 ppm): 100%

CCn1nc(-c2cc(OC)cc(OC)c2)c(-c2ccc(F)cc2Cl)cc1=O [Compound 26]
Test D disease control rating ([1]; 250 ppm): 0%
Test F disease control rating ([2]; 250 ppm): 0%
Test B disease control rating ([3]; 250 ppm): 55%
Test C disease control rating ([4]; 250 ppm): 96%
Test A disease control rating ([5]; 250 ppm): 12%
Test E disease control rating ([6]; 250 ppm): 99%

COc1cc(F)cc(-c2nn(C)c(=O)cc2-c2c(F)cccc2F)c1 [Compound 27]
Test D disease control rating ([1]; 250 ppm): 56%
Test F disease control rating ([2]; 250 ppm): 0%
Test B disease control rating ([3]; 250 ppm): 99%
Test C disease control rating ([4]; 250 ppm): 97%
Test A disease control rating ([5]; 250 ppm): 99%
Test E disease control rating ([6]; 250 ppm): 96%

Cn1nc(-c2cc(F)ccc2Cl)c(-c2c(F)cccc2F)cc1=O [Compound 28]
Test D disease control rating ([1]; 250 ppm): 0%
Test F disease control rating ([2]; 250 ppm): 0%
Test B disease control rating ([3]; 250 ppm): 100%
Test C disease control rating ([4]; 250 ppm): 100%
Test A disease control rating ([5]; 250 ppm): 100%
Test E disease control rating ([6]; 250 ppm): 100%

Cn1nc(-c2cccc(F)c2Cl)c(-c2c(F)cccc2F)cc1=O [Compound 29]
Test D disease control rating ([1]; 250 ppm): 25%
Test F disease control rating ([2]; 250 ppm): 0%
Test B disease control rating ([3]; 250 ppm): 98%
Test C disease control rating ([4]; 250 ppm): 99%
Test A disease control rating ([5]; 250 ppm): 100%
Test E disease control rating ([6]; 250 ppm): 100%

COc1cccc(-c2nn(C)c(=O)cc2-c2c(F)cccc2F)c1Cl [Compound 30]
Test D disease control rating ([1]; 250 ppm): 98%
Test F disease control rating ([2]; 250 ppm): 41%
Test B disease control rating ([3]; 250 ppm): 99%
Test C disease control rating ([4]; 250 ppm): 84%
Test A disease control rating ([5]; 250 ppm): 100%
Test E disease control rating ([6]; 250 ppm): 100%

COc1cc(OC)c([N+](=O)[O-])c(-c2nn(C)c(=O)cc2-c2c(F)cccc2F)c1Cl [Compound 31]
Test D disease control rating ([1]; 50 ppm): 0%
Test F disease control rating ([2]; 50 ppm): 0%
Test B disease control rating ([3]; 50 ppm): 9%
Test C disease control rating ([4]; 50 ppm): 0%
Test A disease control rating ([5]; 50 ppm): 0%
Test E disease control rating ([6]; 50 ppm): 0%

CCn1nc(-c2cc(OC)cc(OC)c2)c(-c2c(F)cccc2F)cc1=O [Compound 32]
Test D disease control rating ([1]; 250 ppm): 0%
Test F disease control rating ([2]; 250 ppm): 0%
Test B disease control rating ([3]; 250 ppm): 9%
Test C disease control rating ([4]; 250 ppm): 29%
Test A disease control rating ([5]; 250 ppm): 0%
Test E disease control rating ([6]; 250 ppm): 80%

CCc1c(-c2ccc(F)cc2Cl)c(-c2c(Cl)c(OC)cc(OC)c2Br)nn(C)c1=O [Compound 45]
Test D disease control rating ([1]; 50 ppm): 0%
Test F disease control rating ([2]; 50 ppm): 0%
Test B disease control rating ([3]; 50 ppm): 0%
Test C disease control rating ([4]; 50 ppm): 69%
Test A disease control rating ([5]; 50 ppm): 0%
Test E disease control rating ([6]; 50 ppm): 0%

CCc1c(-c2c(F)cccc2F)c(-c2c(F)cccc2F)nn(C)c1=O [Compound 46]
Test D disease control rating ([1]; 50 ppm): 0%
Test F disease control rating ([2]; 50 ppm): 99%
Test B disease control rating ([3]; 50 ppm): 98%
Test C disease control rating ([4]; 50 ppm): 95%
Test A disease control rating ([5]; 50 ppm): 99%
Test E disease control rating ([6]; 50 ppm): 88%

COc1cc(OC)c(Cl)c(-c2nn(C)c(=O)c(C)c2-c2ccc(F)cc2Cl)c1Cl [Compound 47]
Test D disease control rating ([1]; 50 ppm): 0%
Test F disease control rating ([2]; 50 ppm): 0%
Test B disease control rating ([3]; 50 ppm): 68%
Test C disease control rating ([4]; 50 ppm): 43%
Test A disease control rating ([5]; 50 ppm): 52%
Test E disease control rating ([6]; 50 ppm): 91%
